Source: patent US20100056516A1 (priority 2006, published 2010)

Experiments:
HXB2 virus = assay: microbe, parasite or virus in culture; type: cell-based, HIV; conditions: Human immunodeficiency virus 1, HXB2, HeLaP4-2, read-out: antiviral IC50 (SCIA-B)
In short: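 Single-cycle infectivity assay in HeLa P4-2 cells measuring inhibition of acute HIV infection, using HXB2 virus.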

HIV integrase = HIV integrase (Human immunodeficiency virus type 1 group M subtype B, UniProt P04585); assay: integrase strand transfer assay (STA); type: biochemical; conditions: integrase strand transfer; read-out: IC50 in the STA assay

Row | SMILES | IC50 (HXB2 virus) [µM] | IC50 (HIV integrase) [µM]
1 | CCOC(=O)c1c(O)c2cc(Oc3ccc(N)cc3)cnc2n(O)c1=O [Example 89, Ethyl 6-(4-aminophenoxy)-1,4-dihydroxy-2-oxo-1,2-dihydro-1,8-naphthyridine-3-carboxylate] | < 100 | < 50
2 | Cc1n[nH]c2c1c(=O)n(O)c1ncccc21 [Example 94, 5-Hydroxy-3-methyl-1,5-dihydro-4H-pyrazolo[4,3-c]-1,8-naphthyridin-4-one] | < 100 | < 50
3 | CC(=O)Nc1cc(=O)n(O)c2ncccc12 [Example 100, N-(1-Hydroxy-2-oxo-1,2-dihydro-1,8-naphthyridin-4-yl)acetamide] | < 100 | < 50
4 | CS(=O)(=O)NCc1ccc(-c2cc(=O)n(O)c3ncccc23)cc1 [Example 189, N-[4-(1-hydroxy-2-oxo-1,2-dihydro-1,8-naphthyridin-4-yl)benzyl]methanesulfo-namide] | < 100 | < 50
5 | O=c1c(-c2ccccc2)c(O)c2cccnc2n1O [Example 30, 1,4-Dihydroxy-3-phenyl-1,8-naphthyridin-2-(1H)-one] | < 100 | < 50
6 | O=c1cc(-c2ccc(NCCN3CCOCC3)nc2)c2cccnc2n1O [Example 200, 1-hydroxy-4-{6-[(2-morpholin-4-ylethyl)amino]pyridin-3-yl}-1,8-naphthyridin-2(1H)-one] | < 100 | < 50
7 | O=C(c1cccc(-c2cc(=O)n(O)c3ncccc23)c1)N1CCOCC1 [Example 179, 1-hydroxy-4-[3-(morpholin-4-ylcarbonyl)phenyl]-1,8-naphthyridin-2(1H)-one] | < 100 | < 50
8 | Cc1ccc(CNc2cc(=O)n(O)c3ncccc23)cc1 [Example 143, 1-hydroxy-4-[(4-methylbenzyl)amino]-1,8-naphthyridin-2(1H-one)] | < 100 | < 50
9 | O=c1c(Cc2ccccc2)c(O)c2cc(-c3ccccc3)cnc2n1O [Example 67, 3-Benzyl-1,4-dihydroxy-6-phenyl-1,8-naphthyridin-2(1H)-one] | < 100 | < 50
10 | Nc1cnc2c(c1)c(O)c(-c1ccccc1)c(=O)n2O [Example 250, 6-amino-1,4-dihydroxy-3-phenyl-1,8-naphthyridin-2(1H)-one] | < 100 | < 50
11 | O=c1cc(NCc2ccc(F)cc2)c2cccnc2n1O [Example 152] | < 100 | < 50
12 | CC(NC(=O)c1c(O)c2cccnc2n(O)c1=O)c1ccccc1 (centres unmarked) [Example 23, 1,4-Dihydroxy-2-oxo-N-(1-phenylethyl)-1,2-dihydro-1,8-naphthyridine-3-carboxamide] | < 100 | < 50
13 | CC(NCc1cccc(Cl)c1)c1cnc2c(c1)c(O)c(-c1ccccc1)c(=O)n2O (centres unmarked) [Example 76, 6-{1-[(3-Chlorobenzyl)amino]ethyl}-1,4-dihydroxy-3-phenyl-1,8-napthyridin-2(1H)-one] | < 100 | < 50
14 | O=c1c(-c2ccc(Cl)cc2)c(O)c2cccnc2n1O [Example 37, 3-(4-Chlorophenyl)-1,4-dihydroxy-1,8-naphthyridin-2(1H)-one] | < 100 | < 50
15 | O=c1cc(O)c2cccnc2n1O [Example 2, 1,4-Dihydroxy-1,8-naphthyridin-2(1B)-one] | < 100 | < 50
16 | O=c1cc(N2CCN(c3ccccc3)CC2)c2cccnc2n1O [Example 131, 1-hydroxy-4-(4-phenylpiperazin-1-yl)-1,8-naphthyridin-2(1H)-one] | < 100 | < 50

Row | SMILES | IC50 (HXB2 virus) [µM] | IC50 (HIV integrase) [µM]
17 | CC(=O)c1cccc(-c2cccc(-c3cc(=O)n(O)c4ncccc34)c2)c1 [Example 191, 4-(3′-acetylbiphenyl-3-yl)-1-hydroxy-1,8-naphthyridin-2(1H)-one] | < 100 | < 50
18 | Nc1cccc(-c2cccc(Cc3cc(=O)n(O)c4ncccc34)c2)c1 [Example 233, 4-[(3′-aminobiphenyl-3-yl)methyl]-1-hydroxy-1,8-naphthyridin-2(1H)-one] | < 100 | < 50
19 | O=c1cc(NCc2ccccc2F)c2cccnc2n1O [Example 155, 4-[(2-fluorobenzyl)amino]-1-hydroxy-1,8-naphthyridin-2(1H-one)] | < 100 | < 50
20 | CCOC(=O)Cc1c(O)c2cccnc2n(O)c1=O [Example 223, Ethyl (1,4-dihydroxy-2-oxo-1,2-dihydro-1,8-naphthyridin-3-yl)acetate] | < 100 | < 50
21 | CS(=O)(=O)Nc1cccc(-c2cccc(-c3cc(=O)n(O)c4ncccc34)c2)c1 [Example 177, N-[3′-(1-hydroxy-2-oxo-1,2-dihydro-1,8-naphthyridin-4-yl)biphenyl-3-yl]methanesulfonamide] | < 100 | < 50
22 | CCOC(=O)c1c(O)c2cc(C(=O)N(C)Cc3ccccc3)cnc2n(O)c1=O [Example 80, Ethyl 6-{[benzyl(methyl)amino]carbonyl}-1,4-dihydroxy-2-oxo-1,2-dihydro-1,8-naphthyridine-3-carboxylate] | < 100 | < 50
23 | COc1ccccc1-c1c(O)c2cccnc2n(O)c1=O [Example 39, 1,4-Dihydroxy-3-(2-methoxyphenyl)-1,8-naphthyridin-2(1H)-one] | < 100 | < 50
24 | CS(=O)(=O)c1cccc(-c2cc(=O)n(O)c3ncccc23)c1 [Example 199, 1-hydroxy-4-[3-(methylsulfonyl)phenyl]-1,8-naphthyridin-2(1H)-one] | < 100 | < 50
25 | CCOC(=O)c1c(O)c2cc(-c3cccc(OC)c3)cnc2n(O)c1=O [Example 62, Ethyl 1,4-dihydroxy-6-(3-methoxyphenyl)-2-oxo-1,2-dihydro-1,8-naphthyridine-3-carboxylate] | < 100 | < 50
26 | O=c1cc(NCC(c2ccccc2)N2CCOCC2)c2cccnc2n1O (centres unmarked) [Example 110, 1-Hydroxy-4-[(2-morpholin-4-yl-2-phenylethyl)amino]-1,8-naphthyridin-2(1H)-one] | < 100 | < 50
27 | CCOC(=O)c1c(Nc2ccccc2)c2cccnc2n(O)c1=O [Example 127, Ethyl 4-anilino-1-hydroxy-2-oxo-1,2-dihydro-1,8-naphthyridine-3-carboxylate] | < 100 | < 50
28 | COC(=O)c1cnc2c(c1)c(O)c(C(=O)NCc1ccccc1)c(=O)n2O [Example 91, Methyl 6-[(benzylamino)carbonyl]-5,8-dihydroxy-7-oxo-7,8-dihydro-1,8-naphthyridine-3-carboxylate] | < 100 | < 50
29 | O=C(CN1CCN(Cc2cccc(-c3cc(=O)n(O)c4ncccc34)c2)CC1)N1CCCC1 [Example 208, 1-hydroxy-4-[3-({4-[2-oxo-2-(1-pyrrolidinyl)ethyl]-1-piperazinyl}methyl)phenyl]-1,8-naphthyridin-2(1H-one)] | < 100 | < 50
30 | O=C(Nc1cccnc1)c1c(O)c2cccnc2n(O)c1=O [Example 16, 1,4-Dihydroxy-2-oxo-N-pyridin-3-yl-1,2-dihydro-1,8-naphthyridine-3-carboxamide] | < 100 | < 50
31 | O=c1cc(NCCN2CCOCC2)c2cccnc2n1O [Example 161] | < 100 | < 50
